Test results reported in US20080038381A1, “APPLICATION OF GREEN TEA EXTRACT AND ITS MAJOR COMPONENTS IN KELOID SCAR THERAPY” (UNIVERSITY OF SOUTHERN CALIFORNIA, priority 2006, published 2008).

Columns and labels:
Type in all cases: cell-based, human
keloid fibroblasts = experiment: Cell viability by MTT assay, keloid fibroblasts; conditions: different concentrations, 24 h, normal conditions
p-4E-BP = experiment: HMC-1-stimulated p-4E-BP level in keloid fibroblasts (Western blot); conditions: keloid fibroblasts pretreated 1 h, co-culture 1 h
Experimental: (§1) FIG. 5 Effects of GTE and EGCG on mast cell-stimulated activation of ERK1/2 and Akt, phosphorylation of p70S6K and 4E-BP-1 in keloid fibroblasts. Keloid fibroblasts (KFs) were pretreated with different concentrations of GTE or EGCG, or various kinase inhibitors for 1 h, followed by direct co-culture with the same number of HMC-1 cells under normal culturing condition for 1 h. Equal amount of cell lysates was subjected to Western blot analysis with an antibodies against ERK1/2 (a), p38 MAPK (b), Akt, p70S6K and 4E-BP1 (c) as described in Materials and Methods. Data presented are representative of results from 3 independent experiments. Keloid fibroblasts (1×10^5/well) were seeded on the bottom of a 6-well plate and maintained at normal culturing conditions for at least 24 h. Different densities of HMC-1 cells were seeded on top of the monolayer of fibroblasts and co-cultured for different time intervals based on experimental purposes. […] Total protein concentrations of whole cell lysates were determined using BioRad BCA method (PIERCE, Rockford, Ill.). […]

[1] = system: pro-COL1A1 and COL1A2 gene mRNA; experiment: COL1A1 and COL1A2 mRNA levels by RT-PCR in co-cultured keloid fibroblasts and HMC-1 cells; conditions: pretreated 1 h, co-culture with HMC-1 cells 24 h
Experimental: (§2) Keloid fibroblasts (1×10^5/well) were seeded on the bottom of a 6-well plate and maintained at normal culturing conditions for at least 24 h. Different densities of HMC-1 cells were seeded on top of the monolayer of fibroblasts and co-cultured for different time intervals based on experimental purposes. To observe the effects of GTE and EGCG or various specific kinase inhibitors on type I collagen expression in keloid fibroblasts co-cultured with HMC-1 cells, fibroblasts at about 80% confluence were pretreated with different concentrations of GTE, EGCG, or various kinase inhibitors for 1 h followed by co-culturing with the same cell density of HMC-1 cells (1:1) under normal culturing conditions for indicated time periods. Cell lysates were prepared for Western blot analysis.
Total RNA was isolated from […] using TRIZOL® Reagent (Invitrogen). RT-PCR analysis of COL1A1, COL1A2 and β-actin mRNA levels was performed using the One-step RT-PCR Kit (QIAGEN, Valencia, Calif.) with primers specific to COL1A1: forward primer 5′-[…]-3′ and reverse primer 5′-[…]-3′; primers for COL1A2: forward primer 5′-[…]-3′ and reverse primer 5′-[…]-3′ (Stefanovic et al., 2005); primers for […]1-actin: forward primer 5′-[…]-3′ and reverse primer 5′-[…]-3′. All the primers were synthesized by Microchemical Core Facility, Norris Cancer Center of University of Southern California.

[2] = system: type I collagen expression in keloid fibroblasts co-cultured with HMC-1 cells; experiment: HMC-1-stimulated type I collagen expression in co-cultured keloid fibroblasts (Western blot); conditions: pretreated 1 h, then co-culture with same density of HMC-1 cells (1:1) for 24 h
Experimental: as §2
To determine type I collagen, and phosphorylated ERK1/2 and Akt levels, cells were solubilized in lysis buffer (50 mM Tris-HCl, pH 7.5, 150 mM NaCl, 5 mM EDTA, 200 μM Na3VO4, 50 mM NaF, 0.5% Triton X-100) supplemented with 10 mM dithiothreitol (DTT), 200 FM phenylmethylsulfonyl fluoride (PMSF) and protease inhibitor cocktails (Sigma). Total protein concentrations of whole cell lysates were determined using BioRad BCA method (PIERCE, Rockford, Ill.). Equal amounts of protein sampled from whole cell lysates were subjected to electrophoresis on 7.5%-10% sodium dodecyl sulfate (SDS)-polyacrylamide gels and electroblotted onto nitrocellulose membranes (Hybond ECL, Amersham Pharmacia). After blocking with Tris-buffered saline (TBS)/5% skim milk, the membranes were incubated overnight at 4 °C with primary antibodies against human type I collagen, total or phosphorylated ERK1/2 (Thr202/Tyr204) or Akt (Ser473). Membranes were subsequently washed, incubated with a horseradish peroxidase (HRP) conjugated secondary:antibodies (1:2000) (Pierce, Rockford, Ill.) for 1 h at room temperature, and visualized using an enhanced chemiluminescent (ECL) detection.

phosphorylated p38 MAPK = experiment: HMC-1-stimulated phosphorylated p38 MAPK level in keloid fibroblasts (Western blot); conditions: keloid fibroblasts pretreated 1 h, co-culture 1 h
Experimental: (§3) FIG. 5 Effects of GTE and EGCG on mast cell-stimulated activation of ERK1/2 and Akt, phosphorylation of p70S6K and 4E-BP-1 in keloid fibroblasts. Keloid fibroblasts (KFs) were pretreated with different concentrations of GTE or EGCG, or various kinase inhibitors for 1 h, followed by direct co-culture with the same number of HMC-1 cells under normal culturing condition for 1 h. Equal amount of cell lysates was subjected to Western blot analysis with an antibodies against ERK1/2 (a), p38 MAPK (b), Akt, p70S6K and 4E-BP1 (c) as described in Materials and Methods. Data presented are representative of results from 3 independent experiments.
(§4) Keloid fibroblasts (1×10^5/well) were seeded on the bottom of a 6-well plate and maintained at normal culturing conditions for at least 24 h. Different densities of HMC-1 cells were seeded on top of the monolayer of fibroblasts and co-cultured for different time intervals based on experimental purposes. […]
(§5) To determine type I collagen, and phosphorylated ERK1/2 and Akt levels, cells were solubilized in lysis buffer (50 mM Tris-HCl, pH 7.5, 150 mM NaCl, 5 mM EDTA, 200 μM Na3VO4, 50 mM NaF, 0.5% Triton X-100) supplemented with 10 mM dithiothreitol (DTT), 200 FM phenylmethylsulfonyl fluoride (PMSF) and protease inhibitor cocktails (Sigma). Total protein concentrations of whole cell lysates were determined using BioRad BCA method (PIERCE, Rockford, Ill.). […]

HMC-1 cells = experiment: Cell viability by MTT assay, HMC-1 cells; conditions: different concentrations, 24 h, normal conditions
[3] = system: type I collagen in keloid fibroblasts; experiment: Basal (constitutive) type I collagen level in keloid fibroblasts (Western blot); conditions: keloid fibroblasts alone, 24 h
Experimental: Equal amount of cell lysates (100 μg) was subjected to Western blot analysis with an anti-type I collagen antibody as described in Materials and Methods. […] (c) KFs were cultured in the presence of different concentrations of GTE or EGCG for 24 h, and type I collagen levels were determined by Western blot. (d) Denssitometric analysis of results from c. […] The results represent three independent experiments and expressed as the mean ±SD.
To determine type I collagen, and phosphorylated ERK1/2 and Akt levels, cells were solubilized in lysis buffer (50 mM Tris-HCl, pH 7.5, 150 mM NaCl, 5 mM EDTA, 200 μM Na3VO4, 50 mM NaF, 0.5% Triton X-100) supplemented with 10 mM dithiothreitol (DTT), 200 FM phenylmethylsulfonyl fluoride (PMSF) and protease inhibitor cocktails (Sigma). Total protein concentrations of whole cell lysates were determined using BioRad BCA method (PIERCE, Rockford, Ill.). Equal amounts of protein sampled from whole cell lysates were subjected to electrophoresis on 7.5%-10% sodium dodecyl sulfate (SDS)-polyacrylamide gels and electroblotted onto nitrocellulose membranes (Hybond ECL, Amersham Pharmacia). […]
To find out whether GTE and EGCG have any effects on the basal level of type I collagen in keloid fibroblasts, cells were cultured in the presence of different concentrations of GTE or EGCG for 24 hours and type I collagen levels were determined by Western blot.

phosphorylated Akt = experiment: HMC-1-stimulated phosphorylated Akt level in keloid fibroblasts (Western blot); conditions: keloid fibroblasts pretreated 1 h, co-culture 1 h
Experimental: as §1

p-p70S6K = experiment: HMC-1-stimulated p-p70S6K level in keloid fibroblasts (Western blot); conditions: keloid fibroblasts pretreated 1 h, co-culture 1 h
Experimental: as §3, §4, §5

phosphorylated ERK1/2 = experiment: HMC-1-stimulated phosphorylated ERK1/2 level in keloid fibroblasts (Western blot); conditions: keloid fibroblasts pretreated 1 h, co-culture 1 h
Experimental: as §3, §4, §5

O=C(O[C@@H]1Cc2c(O)cc(O)cc2O[C@@H]1c1cc(O)c(O)c(O)c1)c1cc(O)c(O)c(O)c1 [EGCG, (−)-epigallocatechin-3-gallate]
cell viability (MTT), keloid fibroblasts (keloid fibroblasts): No obvious changes in cell viability | p-4E-BP level stimulated by HMC-1 cells (p-4E-BP): dose-dependent reduction | HMC-1-stimulated type I collagen mRNA messages (pro-COL1A1, COL1A2) in keloid fibroblasts [1]: dose-dependent reduction | HMC-1-stimulated type I collagen expression (protein production) in keloid fibroblasts [2]: dose-dependent reduction | phosphorylated p38 MAPK level stimulated by co-culture with HMC-1 cells (phosphorylated p38 MAPK): did not have any obvious inhibitory effects | cell viability (MTT), HMC-1 cells (HMC-1 cells): No obvious changes in cell viability | constitutive (basal) expression of type I collagen in keloid fibroblasts [3]: inhibited the constitutive expression of type I collagen in a dose-dependent manner | phosphorylated Akt level stimulated by HMC-1 cells (phosphorylated Akt): dose-dependent reduction | p-p70S6K level stimulated by HMC-1 cells (p-p70S6K): dose-dependent reduction | phosphorylated ERK1/2 level stimulated by co-culture with HMC-1 cells (phosphorylated ERK1/2): did not have any obvious inhibitory effects

COc1cccc(-c2cc(=O)c3ccccc3o2)c1N [PD98059]
HMC-1-stimulated type I collagen expression (protein production) in keloid fibroblasts [2]: no obvious inhibitory effects

C[S+]([O-])c1ccc(-c2nc(-c3ccncc3)c(-c3ccc(F)cc3)[nH]2)cc1 (stereo not shown) [SB203580]
HMC-1-stimulated type I collagen expression (protein production) in keloid fibroblasts [2]: dose dependent inhibition

N#CC(=C(/N)Sc1ccccc1N)/C(C#N)=C(\N)Sc1ccccc1N [U0126]
HMC-1-stimulated type I collagen expression (protein production) in keloid fibroblasts [2]: no obvious inhibitory effects
